Data: paper PMC12426469, “A Covalent and Modulable Inhibitor of the Tubulin‐Microtubule System: Insights Into the Mechanism of Cacalol” (Chemical Biology & Drug Design, 2025)

Biological target: T1, α-tubulin (Sus scrofa, UniProt P02550)
T1 construct: gene TUBA1A; purified porcine brain α,β-tubulin; modified peptide 340SIQFVDWCPTGFK352 of α-tubulin; with β-tubulin
Experiment: LC-MS of trypsin-digested tubulin showing covalent adduct; IC50 from in vitro tubulin polymerization assay
Format: biochemical

T1 sequence (P02550 whole entry): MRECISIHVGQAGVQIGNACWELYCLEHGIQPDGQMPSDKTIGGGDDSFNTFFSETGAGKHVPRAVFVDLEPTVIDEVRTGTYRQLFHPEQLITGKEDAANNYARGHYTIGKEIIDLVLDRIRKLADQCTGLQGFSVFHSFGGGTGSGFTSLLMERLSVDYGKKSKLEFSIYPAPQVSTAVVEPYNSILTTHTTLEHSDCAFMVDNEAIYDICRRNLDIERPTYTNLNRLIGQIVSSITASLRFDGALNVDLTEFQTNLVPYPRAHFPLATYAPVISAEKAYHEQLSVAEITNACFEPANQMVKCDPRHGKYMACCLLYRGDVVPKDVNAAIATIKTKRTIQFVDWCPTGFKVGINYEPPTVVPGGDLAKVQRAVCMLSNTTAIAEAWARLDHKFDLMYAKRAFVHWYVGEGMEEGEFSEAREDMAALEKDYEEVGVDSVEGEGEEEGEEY
T1 sequence (P02554 whole entry partner): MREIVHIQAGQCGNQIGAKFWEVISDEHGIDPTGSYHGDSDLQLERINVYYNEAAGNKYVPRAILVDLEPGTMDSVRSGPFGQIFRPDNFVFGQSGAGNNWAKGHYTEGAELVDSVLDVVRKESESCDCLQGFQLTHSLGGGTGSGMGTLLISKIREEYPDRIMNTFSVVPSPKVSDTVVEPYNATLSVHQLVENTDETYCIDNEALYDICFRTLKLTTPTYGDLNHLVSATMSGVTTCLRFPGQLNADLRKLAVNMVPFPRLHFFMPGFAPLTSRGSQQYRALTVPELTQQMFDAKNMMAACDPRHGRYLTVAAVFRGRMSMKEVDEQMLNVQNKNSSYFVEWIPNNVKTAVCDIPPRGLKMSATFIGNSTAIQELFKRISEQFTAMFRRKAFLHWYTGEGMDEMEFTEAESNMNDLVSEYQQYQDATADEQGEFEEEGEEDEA

C=C1C2=C(CCC[C@@H]2C)C(=O)c2occ(C)c21 [compound 2, (S)‐3,5‐Dimethyl‐4‐Methylene‐5,6,7,8‐Tetrahydronaphtho[2,3‐b]Furan‐9(4H )‐One]
IC50: 43 µM
